In US10017574B2, “Methods, kits and devices for promoting cardiac regeneration” (Yeda Research and Development Co. Ltd., priority 2015, dated 2018):
“Also recorded” adds a separate entry of the source.

Experiments:
P1 and P7 mouse CMs = assay: NRG1-stimulated proliferation of cultured P1 and P7 cardiomyocytes (Ki67, BrdU, pH3, AuroraB immunofluorescence, counting newly formed CMs); assay type: cell-based; details: various NRG1 doses, 72 hours
Protocol: (§1) Primary cardiomyocytes were isolated from 1-day-old (P1) and 7-days-old (P7) mice using a neonatal dissociation kit (gentleMACS, Germany), according to the manufacturer's instructions, and cultured in gelatin-coated (0.1%, G1393, Sigma, St. Louis, Mo., USA) wells with DMEM/F12 medium supplemented with L-glutamine, Na-pyruvate, Non-essential amino acids, penicillin, streptomycin, 5% Horse serum and 10% FBS (hereafter referred to as “complete-medium”) at 37° C. and 5% CO2.
In experiments involving administration of Neuregulin-1b (NRG1, R&D Systems, MN, USA), the cells were allowed to adhere for 48 hours in complete-medium. Subsequently, the medium was replaced with an FBS-deprived complete-medium containing the indicated NRG1 doses for 72 hours. BrdU (10 μM, B5002, Sigma, St. Louis, Mo., USA) was introduced along with NRG1. Cells were fixed in 4% PFA and stained for markers of interest.
(§2) Heart sections underwent deparaffinization, fixation in 4% PFA (5 minutes) and microwave antigen retrieval in EDTA or citric acid buffer, followed by gradual chilling. […] Slides were mounted with Immu-mount (9990412, Thermo scientific, MA, USA) and viewed under a fluorescence microscope (Nikon Intensilight or Nikon eclipse 90i, Nikon, Düsseldorf, Germany) or spinning disk confocal microscope (Carl Zeiss, Thornwood, N.Y., USA) as specified in the figure legends.

neonatal Erbb2-cKO CMs = assay: NRG1-stimulated proliferation of cultured CMs from P1 Erbb2-cKO mice (Ki67, pH3, newly formed CMs); assay type: cell-based, mouse; details: CMs isolated from P1 Erbb2-cKO mice, NRG1 in vitro
Excerpt: CM-restricted deletion of Erbb2 (Erbb2-cKO) was generated by crossing Erbb2^flox/flox 41 to Erbb2^lacZ/+; αMHC-Cre mice (see FIG. 2A). The Erbb2^lacZ/+ mice used in this study carry an allele that encodes a nonfunctional ErbB2-galactosidase fusion protein lacking the tyrosine kinase domain^42. In some experiments, addition of ROSA26-tdTomato allele to this system has been used to label cardiac muscle cell lineage in Erbb2-cKO mice. Erbb2^flox/flox and Erbb2^lacZ/+ mice were maintained on a C57BL/6 background. […]
as §2

caErbb2 CMs [1] = assay: Cell-cycle re-entry (Ki67) of P7 caErbb2 CMs treated in vitro with inhibitors or factors; assay type: cell-based, mouse; details: P7 neonatal caErbb2 heart cells, treated in vitro for 2 days
Excerpt: (§3) Doxycycline inducible CM restricted overexpression of a constitutively active Erbb2 (caErbb2) was generated by crossing TetRE-caErbb2 mouse line^65 (a B6SJLF1/J transgenic line in which this mutated Erbb2 is placed under the control of a minimal CMV promoter and the tetracycline-responsive element) with αMHC-tTA^66, which expresses the tetracycline-responsive transcriptional activator (tTA) under the control of the human alpha myosin heavy chain promoter (αMHC) promoter (see FIG. 10A). αMHC-tTA strain was created in the FVB background and then the line was backcrossed to C57BL/6. Doxycycline (DOX, Harlan Laboratories) was administered in the food to repress transgene expression.
as §1
(§4) In cultures isolated from hearts of P7 ctrl and caErbb2-cOE animals, the cells were seeded in the aforementioned complete-medium for 48 hours, in the presence of the following substances: MEK/MAPKK kinase inhibitor regarded in the text as ERK inhibitor (2 μM, PD0325901, Tocris Bioscience, Bristol, UK), AKT1/2 inhibitor (5 μM, AKT inhibitor VIII, ApexBio, Houston, Tex., USA), GSK3β inhibitor (10 μM, CHIR-99021, Axon Medchem, Netherlands), β-Catenin inhibitor (10 μM, IWR-1, Sigma, St. Louis, Mo., USA), p38 inhibitor (10 μM SB202190, Merck Millipore, Massachusetts, USA), Periostin (500 ng/ml; BioVendor, Brno Czech Republic), FGF1 (100 ng/ml; R&D Systems, MN, USA). The dissolving reagents were added to unstimulated samples. Subsequently, cells were fixed in 4% PFA and stained for markers of interest.
(§5) Heart sections underwent deparaffinization, fixation in 4% PFA (5 minutes) and microwave antigen retrieval in EDTA or citric acid buffer, followed by gradual chilling. Then heart sections and cultured cells were processed in the following manner. Samples were permeabilized with 0.5% Triton X-100 in PBS for 5 minutes and blocked with 5% bovine serum albumin (BSA, Sigma, St. Louis, Mo., USA) in PBS containing 0.1% Triton for 1 hour at room temperature. Then samples were incubated 1 hour at room temperature or overnight at 4° C. with the following antibodies diluted in 3% BSA blocking solution: anti-Troponin T (1:200, ab33589, Abcam, Cambridge, Mass., USA), anti-Troponin I (1:200, ab47003, Abcam, Cambridge, Mass., USA) or anti-NKX2.5 (1:200, ab35842, Abeam, Cambridge, Mass., USA) Abs were used to identify CMs. Anti-Ki67 antibody (1:200, 275R, Cell Marque, Austin, Tex., USA) anti-BRDU antibody (1:100, G3G4, DSHB, Iowa City, Iowa, USA), anti-phosphorylated-Histone3 (pH3) antibody (1:200, SC-8656-R, Santa Cruz Biotechnology Inc., Santa Cruz, Calif., USA) and anti-Aurora B (1:100, 611082, BD Transduction Laboratories, Lexington, Ky., USA) were used to analyze cell cycle re-entry, DNA synthesis, karyokinesis and cytokinesis, respectively. Other Abs used in the study: anti-ErbB2 (1:50, sc-284, Santa Cruz Biotechnology Inc., Santa Cruz, Calif., USA), anti-αSMA (1:50, A5691, Sigma, St. Louis, Mo., USA), RUNX1 (1:200, ab92336, Abcam, Cambridge, Mass., USA), anti-DAB2 (1:200, sc-13982, Santa Cruz Biotechnology Inc., Santa Cruz, Calif., USA), anti-β-Catenin (1:200, ab32572, Abcam, Cambridge, Mass., USA). After three washes with PBS, 10 minutes each, samples were stained for 1 hour at room temperature or overnight at 4° C. with fluorescent secondary antibodies (Abeam, Cambridge, Mass., USA) followed by 10 minutes of DAPI (4,6-diamidino-2-phenylindole dihydrochloride) staining for nuclei visualization. […]

caErbb2 CMs [2] = assay: Dedifferentiation (RUNX1 expression, sarcomeric disassembly) of P7 caErbb2 CMs treated in vitro with inhibitors or factors; assay type: cell-based, mouse; details: P7 neonatal caErbb2 heart cells, treated in vitro for 2 days
Excerpt: as §3, §1, §4, §5

caErbb2 CMs [3] = assay: Hypertrophy (cell area) of P7 caErbb2 CMs treated in vitro with inhibitors or factors; assay type: cell-based, mouse; details: P7 neonatal caErbb2 heart cells, treated in vitro for 2 days
Excerpt: as §3, §1, §4, §5

β-Catenin in caErbb2 CMs = assay: β-Catenin immunofluorescence in P7 caErbb2 heart cells treated in vitro with inhibitors; assay type: cell-based, mouse; details: P7 neonatal caErbb2 heart cells, 10 μM
Excerpt: as §3
Primary cardiomyocytes were isolated from 1-day-old (P1) and 7-days-old (P7) mice using a neonatal dissociation kit (gentleMACS, Germany), according to the manufacturer's instructions, and cultured in gelatin-coated (0.1%, G1393, Sigma, St. Louis, Mo., USA) wells with DMEM/F12 medium supplemented with L-glutamine, Na-pyruvate, Non-essential amino acids, penicillin, streptomycin, 5% Horse serum and 10% FBS (hereafter referred to as “complete-medium”) at 37° C. and 5% CO2. […]

In the case of Neuregulin-1b [NRG1], the “CM proliferation (cell cycle activity, DNA synthesis, mitosis, cytokinesis, newly formed CMs)” value (P1 and P7 mouse CMs; P1 mouse CMs in vitro) is reported as “dose-dependent increase”, the “CM proliferation (cell cycle activity, DNA synthesis, mitosis, cytokinesis, newly formed CMs)” value (P1 and P7 mouse CMs; P7 mouse CMs in vitro) is reported as “profoundly reduced effects; also recorded: diminished” and the “CM proliferation (Ki67, pH3, newly formed CMs)” value (neonatal Erbb2-cKO CMs) is reported as “unable to induce CM proliferation”.

For FGF1, the “caErbB2-induced CM proliferation / cell cycle re-entry (Ki67)” value (caErbb2 CMs [1]) was “enhanced”, the “RUNX1 expression in caErbb2 CMs” value (caErbb2 CMs [2]) was “p38 inhibition, in contrast to FGF1 and Periostin, increased RUNX1 expression” and the “caErbB2-induced hypertrophic response (CM cell area)” value (caErbb2 CMs [3]) was “No obvious effects”.

In the case of `Cc1c[nH]c(-c2cnc(NCCNc3ccc(C#N)cn3)nc2-c2ccc(Cl)cc2Cl)n1` [GSK3β inhibitor, CHIR-99021], the “caErbB2-induced CM proliferation / cell cycle re-entry (Ki67)” value (caErbb2 CMs [1]) is reported as “promoted β-Catenin independent increase in cell cycle activity”, the “RUNX1 expression in caErbb2 CMs” value (caErbb2 CMs [2]) is reported as “further increased” and the “β-Catenin accumulation in caErbb2 CMs” value (β-Catenin in caErbb2 CMs) is reported as “further increased”.

With `O=C(NOC[C@H](O)CO)c1ccc(F)c(F)c1Nc1ccc(I)cc1F` [ERK inhibitor, PD0325901] the “caErbB2-induced CM proliferation / cell cycle re-entry (Ki67)” value (caErbb2 CMs [1]) was “completely suppressed”, the “caErbB2-induced CM dedifferentiation (sarcomeric disassembly and RUNX1 expression)” value (caErbb2 CMs [2]) was “completely suppressed” and the “caErbB2-induced hypertrophic response (CM cell area)” value (caErbb2 CMs [3]) was “reduced the hypertrophic response”.

`O=C(Nc1cccc2cccnc12)c1ccc(N2C(=O)[C@@H]3[C@H](C2=O)[C@@H]2C=C[C@H]3C2)cc1` [β-Catenin inhibitor, IWR-1] was tested, and the “caErbB2-induced CM proliferation / cell cycle re-entry (Ki67)” value (caErbb2 CMs [1]) was “without significantly affecting”, the “RUNX1 expression in caErbb2 CMs” value (caErbb2 CMs [2]) was “reduced” and the “caErbB2-induced hypertrophic response (CM cell area)” value (caErbb2 CMs [3]) was “without significantly affecting”.

With `O=c1[nH]c2ccccc2n1C1CCN(Cc2ccc(-c3nc4cc5[nH]cnc5cc4nc3-c3ccccc3)cc2)CC1` [AKT inhibitor, AKT inhibitor VIII] the “caErbB2-induced CM proliferation / cell cycle re-entry (Ki67)” value (caErbb2 CMs [1]) was “moderate effect”, the “caErbB2-induced CM dedifferentiation (sarcomeric disassembly and RUNX1 expression)” value (caErbb2 CMs [2]) was “promoted massive dedifferentiation” and the “caErbB2-induced hypertrophic response (CM cell area)” value (caErbb2 CMs [3]) was “reduced hypertrophic response”.

With `Oc1ccc(-c2nc(-c3ccncc3)c(-c3ccc(F)cc3)[nH]2)cc1` [p38 inhibitor, SB202190] the “caErbB2-induced CM proliferation / cell cycle re-entry (Ki67)” value (caErbb2 CMs [1]) was “enhanced”, the “RUNX1 expression in caErbb2 CMs” value (caErbb2 CMs [2]) was “increased” and the “caErbB2-induced hypertrophic response (CM cell area)” value (caErbb2 CMs [3]) was “No obvious effects”.

B1: Periostin (protein, UniProt Q15063 22-836, looked up)
Periostin: NNHYDKILAHSRIRGRDQGPNVCALQQILGTKKKYFSTCKNWYKKSICGQKTTVLYECCPGYMRMEGMKGCPAVLPIDHVYGTLGIVGATTTQRYSDASKLREEIEGKGSFTYFAPSNEAWDNLDSDIRRGLESNVNVELLNALHSHMINKRMLTKDLKNGMIIPSMYNNLGLFINHYPNGVVTVNCARIIHGNQIATNGVVHVIDRVLTQIGTSIQDFIEAEDDLSSFRAAAITSDILEALGRDGHFTLFAPTNEAFEKLPRGVLERIMGDKVASEALMKYHILNTLQCSESIMGGAVFETLEGNTIEIGCDGDSITVNGIKMVNKKDIVTNNGVIHLIDQVLIPDSAKQVIELAGKQQTTFTDLVAQLGLASALRPDGEYTLLAPVNNAFSDDTLSMDQRLLKLILQNHILKVKVGLNELYNGQILETIGGKQLRVFVYRTAVCIENSCMEKGSKQGRNGAIHIFREIIKPAEKSLHEKLKQDKRFSTFLSLLEAADLKELLTQPGDWTLFVPTNDAFKGMTSEEKEILIRDKNALQNIILYHLTPGVFIGKGFEPGVTNILKTTQGSKIFLKEVNDTLLVNELKSKESDIMTTNGVIHVVDKLLYPADTPVGNDQLLEILNKLIKYIQIKFVRGSTFKEIPVTVYTTKIITKVVEPKIKVIEGSLQPIIKTEGPTLTKVKIEGEPEFRLIKEGETITEVIHGEPIIKKYTKIIDGVPVEITEKETREERIITGPEIKYTRISTGGGETEETLKKLLQEEVTKVTKFIEGGDGHLFEDEEIKRLLQGDTPVRKLQANKKVQGSRRRLREGRSQ
notes: Periostin protein (500 ng/ml; BioVendor)
In the case of B1, the “caErbB2-induced CM proliferation / cell cycle re-entry (Ki67)” value (caErbb2 CMs [1]) is reported as “enhanced”, the “RUNX1 expression in caErbb2 CMs” value (caErbb2 CMs [2]) is reported as “p38 inhibition, in contrast to FGF1 and Periostin, increased RUNX1 expression” and the “caErbB2-induced hypertrophic response (CM cell area)” value (caErbb2 CMs [3]) is reported as “No obvious effects”.
